Measurements reported in the NIST ThermoML archive (doi:10.1021/je050183a).
Numbers after ± are expanded uncertainties.

What was measured:
[1] = xn = mol fraction of the nth substance listed; settings: 101 kPa, Liquid; for viscosity: Capillary tube (Ostwald / Ubbelohde) method; for speed of sound: Linear variable-path acoustic interferometer; for mass density: Pycnometric method
[2] = refractive index (Na D-line) (dimensionless); xn = mol fraction of the nth substance listed; settings: 298.15 K, 101 kPa, Liquid, Standard Abbe refractometry

CC1OC(C)OC(C)O1 (stereo not drawn) [2,4,6-trimethyl-1,3,5-trioxane] + COC(=O)OC
[1]
Settings	mass density, 288.15 K [kg/m3]	mass density, 298.15 K [kg/m3]	speed of sound, 288.15 K [m/s]	speed of sound, 298.15 K [m/s]	viscosity, 288.15 K [mPa·s]	viscosity, 298.15 K [mPa·s]
x1 = 0.0204	1074.19 ± 1.5	1060.99 ± 1.5	1242.2 ± 2.7	1197.4 ± 2.7	0.66 ± 0.009	0.59 ± 0.008
x1 = 0.0409	1071.96 ± 1.5	1058.89 ± 1.5	1242.3 ± 2.7	1197.3 ± 2.7	0.673 ± 0.009	0.6 ± 0.008
x1 = 0.059	1070.03 ± 1.5	1057.07 ± 1.4	1242.4 ± 2.7	1197.3 ± 2.7	0.684 ± 0.009	0.609 ± 0.008
x1 = 0.0845	1067.35 ± 1.5	1054.53 ± 1.4	1242.4 ± 2.7	1197 ± 2.7	0.699 ± 0.009	0.62 ± 0.008
x1 = 0.1091	1064.81 ± 1.4	1052.11 ± 1.4	1242.3 ± 2.7	1196.8 ± 2.7	0.713 ± 0.009	0.63 ± 0.008
x1 = 0.2258	1053.37 ± 1.4	1041.01 ± 1.4	1240.4 ± 2.7	1194.6 ± 2.7	0.77 ± 0.01	0.673 ± 0.009
x1 = 0.3012	1046.5 ± 1.4	1034.2 ± 1.4	1238.4 ± 2.7	1192.7 ± 2.7	0.803 ± 0.011	0.697 ± 0.009
x1 = 0.3994	1038.14 ± 1.4	1025.83 ± 1.4	1235 ± 2.7	1189.6 ± 2.7	0.844 ± 0.011	0.727 ± 0.01
x1 = 0.494	1030.68 ± 1.4	1018.35 ± 1.4	1231.2 ± 2.7	1186 ± 2.7	0.887 ± 0.012	0.757 ± 0.01
x1 = 0.5906	1023.62 ± 1.4	1011.31 ± 1.4	1227.2 ± 2.7	1182.3 ± 2.7	0.936 ± 0.012	0.793 ± 0.011
x1 = 0.696	1016.52 ± 1.4	1004.26 ± 1.4	1223.1 ± 2.7	1178.5 ± 2.6	1.002 ± 0.013	0.84 ± 0.011
x1 = 0.808	1009.63 ± 1.4	997.47 ± 1.4	1219.3 ± 2.7	1175.3 ± 2.6	1.091 ± 0.014	0.906 ± 0.012
x1 = 0.9289	1002.87 ± 1.4	991.2 ± 1.3	1216.7 ± 2.7	1173.1 ± 2.6	1.214 ± 0.016	0.998 ± 0.013
x1 = 1	999.69 ± 1.3	988.35 ± 1.3	1217.7 ± 2.7	1174.5 ± 2.6	1.374 ± 0.018	1.107 ± 0.015

[2]
Settings	refractive index
x1 = 0.0204	1.3673 ± 0.0008
x1 = 0.0409	1.3686 ± 0.0008
x1 = 0.059	1.3696 ± 0.0008
x1 = 0.0845	1.3711 ± 0.0008
x1 = 0.1091	1.3725 ± 0.0008
x1 = 0.2258	1.3786 ± 0.0008
x1 = 0.3012	1.382 ± 0.0008
x1 = 0.3994	1.386 ± 0.0008
x1 = 0.494	1.3894 ± 0.0008
x1 = 0.5906	1.3925 ± 0.0008
x1 = 0.696	1.3956 ± 0.0008
x1 = 0.808	1.3985 ± 0.0008
x1 = 0.9289	1.4014 ± 0.0008
x1 = 1	1.4029 ± 0.0008
